Data from PubChem BioAssay AID330 (DTP/NCI, 2004).
Several values for one entry are separate records, joined by “and”; a condition that tells them apart may be missing. Equal values may be shown once. Toxic doses and inconclusive results are not listed.

System: P388 leukemia ip, CD2F1 mice, survival T/C
Assay: NCI In Vivo Anticancer Drug Screen. Data for tumor model P388 Leukemia (intraperitoneal) in CD2F1 (CDF1) mice
Conditions: endpoint: median survival time, higher = longer survival
How it was run: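 Mice carrying the transplanted tumor received test compound or vehicle. Survival was recorded in each group, and the value is the treated-group measurement divided by that of the vehicle-treated control group.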

[1] = dose: 100.0 mg/kg/injection, schedule: Q04DX002 (ip), vehicle: Klucel (hydroxypropylcellulose) (HPC)
[2] = dose: 200.0 mg/kg/injection, schedule: Q04DX002 (ip), vehicle: Klucel (hydroxypropylcellulose) (HPC)
[3] = dose: 400.0 mg/kg/injection, schedule: Q04DX002 (ip), vehicle: Klucel (hydroxypropylcellulose) (HPC)
[4] = dose: 12.5 mg/kg/injection, schedule: Q01DX005 (ip), vehicle: distilled water + Tween-80
[5] = dose: 25.0 mg/kg/injection, schedule: Q01DX005 (ip), vehicle: distilled water + Tween-80
[6] = dose: 50.0 mg/kg/injection, schedule: Q01DX005 (ip), vehicle: distilled water + Tween-80
[7] = dose: 100.0 mg/kg/injection, schedule: Q01DX005 (ip), vehicle: distilled water + Tween-80
[8] = dose: 50.0 mg/kg/injection, schedule: Q01DX005 (ip), vehicle: saline with Tween-80
[9] = dose: 100.0 mg/kg/injection, schedule: Q01DX005 (ip), vehicle: saline with Tween-80
[10] = dose: 200.0 mg/kg/injection, schedule: Q01DX005 (ip), vehicle: saline with Tween-80
[11] = dose: 50.0 mg/kg/injection, schedule: Q01DX009 (ip), vehicle: saline with Tween-80
[12] = dose: 100.0 mg/kg/injection, schedule: Q01DX009 (ip), vehicle: saline with Tween-80
[13] = dose: 200.0 mg/kg/injection, schedule: Q01DX009 (ip), vehicle: saline with Tween-80
[14] = dose: 50.0 mg/kg/injection, schedule: Q01DX005 (ip), vehicle: Klucel (hydroxypropylcellulose) (HPC)
[15] = dose: 100.0 mg/kg/injection, schedule: Q01DX005 (ip), vehicle: Klucel (hydroxypropylcellulose) (HPC)
[16] = dose: 200.0 mg/kg/injection, schedule: Q01DX005 (ip), vehicle: Klucel (hydroxypropylcellulose) (HPC)
[17] = dose: 25.0 mg/kg/injection, schedule: Q01DX009 (ip), vehicle: saline with Tween-80

SMILES: CNC(=O)OCCC(OC(=O)NC)C1CCC2C3CCC4CCCCC4(C)C3CCC12C (configuration not stated)
- T/C [1]: 113 % of control
- T/C [2]: 103 % of control
- T/C [3]: 110 % of control

SMILES: C/C(=N\NC(=S)N1CCN(Cc2ccccc2)CC1)c1ccccn1
- T/C (dose: 3.13 mg/kg/injection, schedule: Q01DX005 (ip), vehicle: saline with Tween-80): 118 % of control
- T/C (dose: 12.5 mg/kg/injection, schedule: Q01DX005 (ip), vehicle: saline with Tween-80): 152 % of control

SMILES: Cn1c(Cl)c(/C=N\Nc2ccc([N+](=O)[O-])cc2)c2ccccc21
- T/C (dose: 50.0 mg/kg/injection, schedule: Q01DX001 (ip), vehicle: Klucel (hydroxypropylcellulose) (HPC)): 89 % of control
- T/C (dose: 100.0 mg/kg/injection, schedule: Q01DX001 (ip), vehicle: Klucel (hydroxypropylcellulose) (HPC)): 89 % of control
- T/C (dose: 200.0 mg/kg/injection, schedule: Q01DX001 (ip), vehicle: Klucel (hydroxypropylcellulose) (HPC)): 100 % of control

SMILES: C/C(=N\NC(=S)N1CCCCCC1)c1ccc[nH]1
- T/C [1]: 111 % of control
- T/C [2]: 102 % of control
- T/C [3]: 107 % of control

SMILES: CN(C)CCC[n+]1cc2c3ccccc3c(N)cc2c2ccccc21
- T/C (dose: 3.13 mg/kg/injection, schedule: Q04DX003 (ip), vehicle: water): 104 % of control
- T/C (dose: 6.25 mg/kg/injection, schedule: Q04DX003 (ip), vehicle: water): 121 % of control
- T/C (dose: 12.5 mg/kg/injection, schedule: Q04DX003 (ip), vehicle: water): 109 % of control
- T/C (dose: 25.0 mg/kg/injection, schedule: Q04DX003 (ip), vehicle: water): 109 % of control

SMILES: CCCCCCCCCCCCCCCc1cccc(O)c1C(=O)O
- T/C [4]: 106 % of control
- T/C (dose: 20.0 mg/kg/injection, schedule: Q01DX009 (ip), vehicle: saline with Tween-80): 113 % of control
- T/C [5]: 102 % of control
- T/C (dose: 40.0 mg/kg/injection, schedule: Q01DX009 (ip), vehicle: saline with Tween-80): 111 % of control
- T/C [6]: 107 % of control
- T/C (dose: 80.0 mg/kg/injection, schedule: Q01DX009 (ip), vehicle: saline with Tween-80): 109 % of control
- T/C [7]: 117 % of control

SMILES: COc1cc(C2c3cc(OS(=O)(=O)c4ccc(C)cc4)c(OC)cc3CC3C(=O)OCC32)ccc1OS(=O)(=O)c1ccc(C)cc1 (configuration not stated)
- T/C [8]: 91 % of control and 92 % of control
- T/C [9]: 91 % of control
- T/C [10]: 91 % of control

SMILES: OC(Nc1ncccn1)C(F)(F)F (configuration not stated)
- T/C [11]: 92 % of control
- T/C [12]: 111 % of control
- T/C [13]: 120 % of control

SMILES: COc1ccc(S(=O)(=O)N(C)/N=C/C(=O)O)cc1
- T/C [4]: 100 % of control
- T/C [5]: 106 % of control
- T/C [6]: 106 % of control
- T/C [7]: 95 % of control
- T/C (dose: 200.0 mg/kg/injection, schedule: Q01DX005 (ip), vehicle: distilled water + Tween-80): 97 % of control
- T/C (dose: 200.0 mg/kg/injection, schedule: Q01DX005 (ip), vehicle: water): 106 % of control
- T/C (dose: 400.0 mg/kg/injection, schedule: Q01DX005 (ip), vehicle: water): 102 % of control

SMILES: CCCCc1noc(N)c1SCC
- T/C [8]: 105 % of control
- T/C [9]: 103 % of control
- T/C [10]: 107 % of control

SMILES: CSC1=Nc2cc3c(cc2C(=O)N2CC(OC(C)=O)CC12)OCO3 (configuration not stated)
- T/C [8]: 98 % of control
- T/C [9]: 99 % of control
- T/C [10]: 97 % of control

SMILES: COC(=O)C1=C(C(=O)OC)P2(c3ccccc3)(c3ccccc3)S/C(=N\P(C)(C)=S)N2C1(c1ccccc1)c1ccccc1
- T/C [14]: 98 % of control
- T/C [15]: 88 % of control
- T/C [16]: 92 % of control

SMILES: CC[n+]1cccc(C(=O)c2ccccc2)c1
- T/C (dose: 3.75 mg/kg/injection, schedule: Q01DX005 (ip), vehicle: saline): 103 % of control
- T/C (dose: 7.5 mg/kg/injection, schedule: Q01DX005 (ip), vehicle: saline): 97 % of control
- T/C (dose: 15.0 mg/kg/injection, schedule: Q01DX005 (ip), vehicle: saline): 102 % of control
- T/C (dose: 30.0 mg/kg/injection, schedule: Q01DX005 (ip), vehicle: saline): 105 % of control

SMILES: CC(C)(C)SC(=O)C1(C(O)c2ccccc2)CC1 (configuration not stated)
- T/C (dose: 100.0 mg/kg/injection, schedule: Q04DX003 (ip), vehicle: Klucel (hydroxypropylcellulose) (HPC)): 106 % of control
- T/C (dose: 200.0 mg/kg/injection, schedule: Q04DX003 (ip), vehicle: Klucel (hydroxypropylcellulose) (HPC)): 115 % of control
- T/C (dose: 400.0 mg/kg/injection, schedule: Q04DX003 (ip), vehicle: Klucel (hydroxypropylcellulose) (HPC)): 112 % of control

SMILES: Cc1nccc2c1[nH]c1cc(N)ccc12.[Cl][Sn][Cl]
- T/C (dose: 5.0 mg/kg/injection, schedule: Q01DX009 (ip), vehicle: saline sonified): 100 % of control
- T/C (dose: 10.0 mg/kg/injection, schedule: Q01DX009 (ip), vehicle: saline sonified): 95 % of control
- T/C (dose: 20.0 mg/kg/injection, schedule: Q01DX009 (ip), vehicle: saline sonified): 100 % of control

SMILES: CNC1CC2OC(C)(C1OC)n1c3ccccc3c3c4c(c5c6ccccc6n2c5c31)C(=O)NC4 (configuration not stated)
- T/C (dose: 0.75 mg/kg/injection, schedule: Q01DX005 (ip), vehicle: water): 120 % of control
- T/C (dose: 1.5 mg/kg/injection, schedule: Q01DX005 (ip), vehicle: water): 90 % of control

SMILES: CC(C)C1SCC(=O)N1N1C(=O)CSC1C(C)C (configuration not stated)
- T/C [8]: 94 % of control
- T/C [9]: 93 % of control
- T/C [10]: 98 % of control

SMILES: CC(=O)OC(C)N(C(C)=O)c1ncc([N+](=O)[O-])s1 (configuration not stated)
- T/C [17]: 100 % of control
- T/C [11]: 101 % of control
- T/C [12]: 106 % of control
- T/C [13]: 110 % of control

SMILES: CC1C(=O)OC2CC34C5CC(C(C)(C)C)C36C(OC(=O)C6O)OC4(C(=O)O5)C21O (configuration not stated)
- T/C [14]: 100 % of control
- T/C [15]: 100 % of control
- T/C [16]: 92 % of control

SMILES: CN(C)C1=CC(=O)c2ccccc2C12CO2 (configuration not stated)
- T/C (dose: 100.0 mg/kg/injection, schedule: Q01DX001 (ip), vehicle: saline with Tween-80): 106 % of control
- T/C (dose: 200.0 mg/kg/injection, schedule: Q01DX001 (ip), vehicle: saline with Tween-80): 100 % of control

SMILES: CC1CCC(C(C)C)C(NC(=O)c2cccnc2)C1 (configuration not stated)
- T/C (dose: 25.0 mg/kg/injection, schedule: Q04DX002 (ip), vehicle: Klucel (hydroxypropylcellulose) (HPC)): 102 % of control
- T/C (dose: 52.0 mg/kg/injection, schedule: Q04DX002 (ip), vehicle: Klucel (hydroxypropylcellulose) (HPC)): 101 % of control
- T/C [1]: 100 % of control
- T/C [2]: 103 % of control

SMILES: OC(C(Br)CBr)C(O)C(Br)CBr (configuration not stated)
- T/C (dose: 50.0 mg/kg/injection, schedule: Q01DX009 (ip), vehicle: Klucel (hydroxypropylcellulose) (HPC)): 105 % of control
- T/C (dose: 100.0 mg/kg/injection, schedule: Q01DX009 (ip), vehicle: Klucel (hydroxypropylcellulose) (HPC)): 110 % of control
- T/C (dose: 200.0 mg/kg/injection, schedule: Q01DX009 (ip), vehicle: Klucel (hydroxypropylcellulose) (HPC)): 112 % of control

SMILES: CCCCOC(=O)C(c1ccccc1)C1(C)Sc2ccccc2NC1=O (configuration not stated)
- T/C (dose: 12.5 mg/kg/injection, schedule: Q01DX001 (ip), vehicle: saline with Tween-80): 95 % of control
- T/C (dose: 25.0 mg/kg/injection, schedule: Q01DX001 (ip), vehicle: saline with Tween-80): 96 % of control
- T/C (dose: 50.0 mg/kg/injection, schedule: Q01DX001 (ip), vehicle: saline with Tween-80): 98 % of control

SMILES: Cc1nn(N)c2[nH]c(Cl)cc(=O)c12
- T/C [8]: 97 % of control
- T/C [9]: 109 % of control
- T/C [10]: 116 % of control

SMILES: C[n+]1cccc(SC2CCC3CC4CC3C2C4)c1 (configuration not stated)
- T/C (dose: 12.5 mg/kg/injection, schedule: Q01DX009 (ip), vehicle: saline with Tween-80): 113 % of control
- T/C [17]: 102 % of control

SMILES: Nc1nc2n(n1)C(=O)C(=O)N2
- T/C (dose: 50.0 mg/kg/injection, schedule: Q04DX003 (ip), vehicle: saline with Tween-80): 100 % of control
- T/C (dose: 100.0 mg/kg/injection, schedule: Q04DX003 (ip), vehicle: saline with Tween-80): 106 % of control
- T/C (dose: 200.0 mg/kg/injection, schedule: Q04DX003 (ip), vehicle: saline with Tween-80): 103 % of control
- T/C (dose: 400.0 mg/kg/injection, schedule: Q04DX003 (ip), vehicle: saline with Tween-80): 103 % of control
